Values of other authors as cited in patent US20150272124A1, “ANTIMICROBIAL COMPOSITIONS CONTAINING CATIONIC ACTIVE INGREDIENTS” (Ecolab USA Inc., priority 2014, published 2015).

Conditions: calcium-chelating agent complex, logarithmic form

Log Stability constant, Ca2+: 5.2
Compound: O=C(O)CC(NC(CC(=O)O)C(=O)O)C(=O)O (stereo not shown) [IDS, Iminodisuccinic Acid]
